Measured values published in patent US20050113348A1, “Vitamin D and vitamin D analogs or derivatives as new anti-hypertensive agents” (priority 2003, published 2005).

How the values were obtained:
renin mRNA in the kidney = assay: Renin mRNA in the kidney of treated mice (Northern blot); type: in vivo, mouse
Procedure: A. […] The 2 doses were given in two consecutive days at 9 am. The 5 doses were given in three consecutive days at 9 am and 7 pm for the first two days, and at 9 am on the third day. Total renal RNA was isolated 6 hr after the last injection. Renin, calbindin-D9k (CaBP-D9k) and 36B4 mRNA levels were determined by Northern blot analysis. B. Quantitation of renin mRNA levels.
(A) Blood ionized calcium levels.
As a control for vitamin D action, Calbindin-D9k stimulation was measured. Quantitative data were presented below the Northern blot gels.
Total kidney RNAs were separated on agarose gels (20 μg/lane). Membranes were hybridized sequentially with 32P-labeled renin and 36B4 cDNA probes. The relative amount of renin mRNA was quantitated after being normalized with 36B4 mRNA levels. […] (B) Quantitative results-from Northern blots in (A).
Animals and treatment. […] VDR^−/− and Gcm2^−/− mice were generated through breeding of heterozygous mice and identified by PCR with tail genomic DNA as the template, and the wild-type littermates were used as controls. […] To increase the sodium load, mice were fed the normal rodent diet supplemented with 8% NaCl for 1, 3, 5 and 7 days. […] Wild-type mice were injected (i.p.) with vehicle or 30 pmole of 1,25(OH)2D3 dissolved in propylene glycol. Mice were sacrificed by exsanguination under anesthesia and the blood was collected into ice-cold tubes for serum isolation, or into ice-cold tubes containing 50 μl of EDTA (pH 8.0) and 100 U/ml aprotinin for plasma isolation. The determination of water and food intake, as well as urine collection, were carried out by using metabolic cages.
RNA isolation and northern blot. The kidney and liver were dissected and immediately placed into the Trizol Reagent (Invitrogen, Grand Island, N.Y.) for total RNA isolation according to the manufacturer's instruction. […] Mouse renin and angiotensinogen cDNA probes were labeled with ^32P-dATP (ICN, Costa Mesa, Calif.) using the Prime-a-gene Labeling System (Promega, Madison, Wis.). After hybridization and washing, membranes were exposed to X-ray films at −80° C. for autoradiography. The relative amount of mRNA was quantitated using a Phospholmager (Molecular Dynamics, Sunnyvale, Calif.) and normalized with 36B4 mRNA.

[1] = tested on: renin mRNA, As4.1-hVDR cells; assay: Renin mRNA by Northern blot in As4.1-hVDR cells (vitamin D analog screening); type: cell-based, mouse; design: Relative inhibitory activity (renin suppressive activity of Gemini analogues): key to the marks not given beside the values; details: for Relative inhibitory activity (renin suppressive activity of Gemini analogues): 24 hours at 10-8, 10^-9 and 10^-10 M, renin mRNA by Northern blot, relative to 1,25-dihydroxyvitamin D3
Procedure: Vitamin D analogues listed in TABLE 1 were used to treat As4.1-hVDR cells at 10^−10, 10^−9 and 10^−8 M. Renin mRNA was analyzed by Northern blot. 36B4 is a control mRNA and represents a mouse acidic ribosomal phosphoprotein.
FIG. 4 is an histogram of evaluation of Gemini analogues by Northern blot analysis. The 11 Gemini compounds listed in TABLE 2 (indicated) were used to treat As4.1 hVDR cells at 10^−10, 10^−9, and 10^−8 M for 24 hours. Renin mRNA was quantitated by Northern blots. The quantitative data obtained at 10^−10 and 10^−9 M are shown in A and B. The # of each compound corresponds to the number shown in TABLE 2. E, ethanol-treated control, VD, 1,25(OH)2D3.
(§1) RNA isolation and northern blot. The kidney and liver were dissected and immediately placed into the Trizol Reagent (Invitrogen, Grand Island, N.Y.) for total RNA isolation according to the manufacturer's instruction. To determine renin or angiotensinogen mRNA expression, total RNA (20 μg/lane) was separated on a 1.2% agarose gel containing 0.6 M formaldehyde, transferred onto a Nylon membrane (MSI, Westborough, Mass.) and crosslinked in a UV crosslinker (Bio-Rad, Hercules, Calif.). Hybridization was performed as described by Li et al. (2001). Mouse renin and angiotensinogen cDNA probes were labeled with ^32P-dATP (ICN, Costa Mesa, Calif.) using the Prime-a-gene Labeling System (Promega, Madison, Wis.). After hybridization and washing, membranes were exposed to X-ray films at −80° C. for autoradiography. The relative amount of mRNA was quantitated using a Phospholmager (Molecular Dynamics, Sunnyvale, Calif.) and normalized with 36B4 mRNA.
As4.1 cell culture and transfection. As4.1 cells (ATCC, Manassas, Va.) were cultured in DMEM supplemented with 10% FBS at 37° C. and 5% CO2. For transient transfection, the cells were grown in 10-cm dishes to 50% confluence and transfected with pcDNA3.1, pcDNA-hVDR or pcDNA-PTH/PTHrPR plasmid (10 μg DNA/dish) by the standard calcium phosphate method. Twenty-four hr after transfection, the cells were treated for 24 hr with 5×10^−8 M of 1,25(OH)2D3 or ethanol in serum-free media, or with different doses of bovine PTH(1-34) as indicated. Total RNA was isolated and analyzed for renin mRNA expression by northern blot. For stable transfection, As4.1 cells were transfected with pcDNA3.1 or pcDNA-hVDR plasmid by the use of Superfect reagent (Qiagen, Valencia, Calif.) and selected with 350 μg/ml of G418 for two weeks. Individual colonies were picked, expanded and selected for VDR expression. The As4.1-hVDR stable clones were treated with different doses of 1,25(OH)2D3 for 24 hr in serum-free media, and total RNA were analyzed by northern blot to examine renin expression.

[2] = tested on: 4.1 kb renin gene promoter (Ren-1c), As4.1-hVDR cells; assay: Renin gene promoter luciferase reporter assay in As4.1-hVDR cells; type: cell-based, mouse; details: 10^−8 M; for Suppression of renin promoter activity (luciferase): pGL-4.1 kb-Luc transfected As4.1-hVDR cells
Description: As4.1-hVDR cells were transfected with pGL-4.1 kb-Luc, and treated with ethanol (E), 10^−8 M of 1,25(OH)2D3 (VD3) and different analogues as indicated.
A. Expression of hVDR mRNA in stable As4.1 clones. P, parental As4.1 cells; #57, As4.1 clone 57 stably transfected with pcDNA-hVDR; V, As4.1 clone stably transfected with the empty vector pcDNA3.1. B. Renin mRNA expression in As4.1 clone V (Vector) and #57 treated with ethanol (E) or different doses of 1,25(OH)2D3 as indicated. c. As4.1-hVDR cells (clone #57) were transfected with pGL3-Control, pGL-4.1 kb or pGL-117 bp luciferase reporter plasmid and then treated with ethanol (closed bar) or 10^−8 M of 1,25(OH)2D3 (open bar). Luciferase activity was determined 48 hr after transfection. Similar results were obtained in other stable clones.
Renin gene promoter analysis. Plasmid pR1C-4.1 CAT that contains 4.1 kb 5′-flanking sequence of mouse Ren-1^c gene (Petrovic et al. 1996) was provided by Dr. K. W. Gross (Roswell Park Cancer Institute, Buffalo, N.Y.). To generate pGL-117 bp reporter plasmid, the 123 bp renin minimal promoter fragment (+6 to −117) was released from pR1C-4.1 CAT with XbaI and BamHI and inserted into the HindIII site of pGL3-basic vector (Promega, Madison, Wis.). To generate pGL-4.1 kb reporter plasmid, the BamHI fragment (−4.1 kb to −118 bp) from pRI C-4.1 CAT was inserted into the BglII site of pGL-117 bp. To analyze the activity of renin gene promoter, As4.1-hVDR cells were transfected with the reporter plasmids by electroporation according to Shi et al. (2001) using a Bio-Rad Gene Pulser (Bio-Rad, Hercules, Calif.). pCMV-β-gal plasmid was co-transfected as an internal control. pGL3-control plasmid (Promega) was used as the positive control. The transfected cells were treated with ethanol or 10^−8 M of 1,25(OH)2D3 in Opti-MEM medium (Invitrogen) containing 2% charcoal-treated FBS four hr after electroporation, and luciferase activity was determined at 48 hr after initial transfection, using the Luciferase Assay System (Promega). Luciferase activity was normalized to β-gal activity obtained from the same electroporation, and presented as fold induction based on the basal activity of pGL3-basic empty vector determined in the same experiment.

[3] = Blood ionized calcium and survival of treated mice; type: in vivo, mouse; details: for Blood calcium level: daily dose 1.5 μg/kg body weight for one week
Description: Two-month old wildtype mice were fed the normal diet supplemented with 2.5% strontium chloride for 7 weeks before sacrifice. A. Northern blot analysis of renin mRNA expression in the kidney from non-treated and strontium-treated wildtype mice. Each lane represents an individual animal. B. Quantitative results of the northern analysis. C. Blood ionized calcium concentration determined at the end of the treatment (n=5 in each group). In both b and c, NT, non-treated; STR, strontium-treated, *, P<0.01 vs. NT value.
(A) Blood ionized calcium levels. Normal mice (n=5) were treated with vehicle (control), 1,25(OH)2D3 (VD3) or compound #9 at a daily dose of 1.5 μg/kg body weight for one week. […] (B) Renin mRNA levels in the kidneys of treated mice, as determined by quantitative Northern blots. *, P<0.01.
Measurement of blood and urine parameters. The concentration of blood ionized calcium was determined using a Ciba/Coming 634 Ca^++/pH analyzer (Chiron Diagnostics, East Walpole, Mass.) from 50 μl of whole blood obtained from tail snipping. Blood glucose concentrations were determined by using One Touch Sure Step test strips (Life Scan, Milpitas, Calif.). Serum intact parathyroid hormone (iPTH) was determined using a commercial ELISA kit (Immutopics, San Clemente, Calif.). The concentration of serum and urinary Na^+, K^+, and creatinine was determined by a Beckman Coulter CX5 Autoanalyzer as described by Li et al. (2001).

renin mRNA, As4.1 cells = assay: Renin mRNA by northern blot in As4.1 cells with or without transient transfection; type: cell-based, mouse
Description: A. As4.1 cells were transiently transfected with (+) or without (−) pcDNA-hVDR plasmid containing the full-length human VDR cDNA and then. treated with 5×10^−8 M of 1,25(OH)2D3 (+) or ethanol (−) for 24 hrs. Total cellular RNA was isolated and analyzed by northern blot with renin and 36B4 cDNA probes. B. Quantitative results of northern blot analyses obtained from three independent experiments. C, ethanol-treated; VD, 1,25(OH)2D3-treated; T, transfected with pcDNA-hVDR and treated with ethanol; T/VD, transfected with pcDNA-hVDR and treated with 1,25(OH)2D3. *, P<0.001 vs. C, VD or T value. C. Renin mRNA expression in As4.1 cells (left panel), and in As4.1 cells transfected with pcDNA-PTH/PTHrPR containing the rat PTH/PTHrP receptor cDNA (right panel) and treated with bovine PTH (1-34) as indicated. −, untreated.
as §1
As4.1 cell culture and transfection. […] Total RNA was isolated and analyzed for renin mRNA expression by northern blot. […] The As4.1-hVDR stable clones were treated with different doses of 1,25(OH)2D3 for 24 hr in serum-free media, and total RNA were analyzed by northern blot to examine renin expression.

[4] = wildtype mice, normal diet with 2.5% strontium chloride for seven weeks

C=C1/C(=C\C=C2/CCC[C@]3(C)[C@@H]([C@H](C)CCCC(C)(C)O)CC[C@@H]23)C[C@@H](O)C[C@@H]1O [1,25-dihydroxyvitamin D3]
mRNA of renal calbindin-D9k (renin mRNA in the kidney; wildtype mice, 30 pmole/dose i.p., control vitamin D target gene): significantly increased
Decrease of renal renin expression (renin mRNA in the kidney; wildtype mice, five doses of 30 pmole i.p. in three days): 50%
Decrease of renal renin expression (renin mRNA in the kidney; wildtype mice, two doses of 30 pmole/dose i.p. in two consecutive days): 35%
Renin expression in stable As4.1-hVDR clones at different doses ([1]; not seen in As4.1-pcDNA cells): dose-dependent suppression
Reduction of the level of renin mRNA ([1]; stable As4.1-hVDR cells, 10^−8 M, 24 hr): about 90%
Time of treatment after which suppression of renin mRNA was evident ([1]; time-course studies, As4.1-hVDR cells): 6 h
Effect on the activity of the SV40 promoter in pGL3-Control plasmid ([2]; As4.1-hVDR cells): no effect
Reduction of the activity of the 4.1 kb renin gene promoter ([2]; pGL-4.1 kb, luciferase at 48 hr after transfection): more than 80%
Deaths on day 7 ([3]; normal mice, daily dose 1.5 μg/kg body weight): 2 animals out of the 5 mice
Blood calcium level ([3]; normal mice): severe hypercalcemia
Renin mRNA expression in As4.1 cells (renin mRNA, As4.1 cells; As4.1 cells not transfected, 5×10^−8 M): moderate reduction
Reduction of renin mRNA expression (renin mRNA, As4.1 cells; As4.1 cells transiently transfected with pcDNA-hVDR, 5×10^−8 M, 24 hrs): about 90%

C=C1C(=CC=C2CCCC3(C)C2CCC3C(CCCC(C)(C)O)CCCC(C)(C)O)CC(O)CC1O (centres unmarked) [#4, 1,25-dihydroxy-21(3-methyl-3-hydroxy-butyl)-cholecalciferol]
Relative inhibitory activity (renin suppressive activity of Gemini analogues) ([1]; As4.1-hVDR cells): ++
Suppression of renin promoter activity (luciferase) [2]: super-potency

CC(C)(O)CCCC(CCCC(C)(C)O)C1CCC2C(=CC=C3CC(O)CC(O)C3)CCCC21C (centres unmarked) [#9, 1,25-dihydroxy-21(3-methyl-3-hydroxy-butyl)-19-nor-cholecalciferol]
Renin mRNA expression in the kidneys (renin mRNA in the kidney; normal mice, daily dose 1.5 μg/kg body weight for one week): reduced
Reduction in renin mRNA levels in the kidneys (renin mRNA in the kidney; normal mice, daily dose 5 μg/kg body weight for one week): 54%
Reduction in renin mRNA levels in the kidneys (renin mRNA in the kidney; normal mice, daily dose 12 μg/kg body weight for one week): 76%
Suppression of renin promoter activity (luciferase) [2]: super-potency
Blood calcium level ([3]; normal mice): minimal increase

C=C1C(=CC=C2CCCC3(C)C2CCC3C(CCCC(C)(C)O)CCC(O)C(C)(C)O)CC(O)CC1O [#18, 1,25-dihydroxy-21(2R,3-hydroxy-3-methylbutyl)-20S-cholecalciferol]
Relative inhibitory activity (renin suppressive activity of Gemini analogues) ([1]; As4.1-hVDR cells): ++

[Cl-].[Cl-].[Sr+2] [strontium, strontium chloride]
Renin mRNA expression in the kidney (renin mRNA in the kidney; [4]): significant increase
Blood ionized calcium [3, 4]: hypocalcemic

PTH(1-34): bovine PTH(1-34), parathyroid hormone fragment used to treat As4.1 cells (AVSEIQFMHNLGKHLSSMERVEWLRKKLQDVHNF; UniProt P01268 32-65, looked up, fragment)
Renin expression in PTH-treated As4.1 cells (renin mRNA, As4.1 cells; As4.1 cells, or As4.1 transfected with pcDNA-PTH/PTHrPR, different doses): No increase in renin expression
